Measurements reported in PubChem BioAssay AID720611 (Broad Institute, 2013).

Tested on: SNB-19 viability, CellTiter-Glo ATP luminescence, 8-48 h
Assay: SNB-19 glioblastoma cell viability over time, late-stage follow-up, mechanism study for HRAS target identification, CellTiter-Glo ATP luminescence, 8-48 h, dry powder (AID 720611)

Compound	AC50 (measured here: 8 h treatment)	AC50 (measured here: 24 h treatment)	AC50 (measured here: 48 h treatment)
COc1ccc(N(C(=O)CCl)C(C(=O)NCCc2ccccc2)c2cccs2)cc1Cl (centres undefined)	978 nM	1300 nM	1250 nM
CC(C)(C)OC(=O)NCCOCCOCCOc1ccc(N(C(=O)CCl)C(C(=O)NCCc2ccccc2)c2cccs2)cc1Cl (centres undefined)	1410 nM	2500 nM	1450 nM
C#CCCCC(=O)NCCOCCOCCOc1ccc(N(C(=O)CCl)C(C(=O)NCCc2ccccc2)c2cccs2)cc1Cl (centres undefined)	5750 nM	4270 nM	3600 nM
